Data reported in PubChem BioAssay (NCI).
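Tested at 5 concentrations; 48 h exposure; 96-well plates; endpoints linearly interpolated, else capped at highest concentration. Abbreviation: GI50, concentration required for 50% inhibition of growth. Definition used: TGI = concentration required for complete inhibition of growth.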

How the values were obtained:
Experiment in all cases: NCI tumour cell line growth inhibition, 48 h; in the data active = GI50 below about 0.43 µM; inactive = the rest
[1] = tested on: SN12C renal
[2] = tested on: DU-145 prostate
[3] = tested on: EKVX NSCLC
[4] = tested on: HOP-92 NSCLC
[5] = tested on: CCRF-CEM leukemia
[6] = tested on: M14 melanoma
[7] = tested on: OVCAR-5 ovarian
[8] = tested on: SNB-75 CNS
[9] = tested on: NCI-H522 lung
[10] = tested on: UACC-62 melanoma
[11] = tested on: TK-10 renal
[12] = tested on: RXF 393 renal
[13] = tested on: MCF7 breast
[14] = tested on: SK-MEL-28 melanoma
[15] = tested on: COLO 205 colon
[16] = tested on: U251 CNS
[17] = tested on: SR leukemia
[18] = tested on: SK-MEL-5 melanoma
[19] = tested on: HCT-15 colon
[20] = tested on: MALME-3M melanoma
[21] = tested on: K-562 leukemia
[22] = tested on: KM12 colon
[23] = tested on: BT-549 breast
[24] = tested on: NCI-H460 lung
[25] = tested on: SF-295 CNS
[26] = tested on: SK-MEL-2 melanoma
[27] = tested on: CAKI-1 renal
[28] = tested on: 786-0 renal
[29] = tested on: OVCAR-3 ovarian
[30] = tested on: T-47D breast
[31] = tested on: IGROV1 ovarian
[32] = tested on: SK-OV-3 ovarian
[33] = tested on: NCI-H226 lung
[34] = tested on: HS 578T breast
[35] = tested on: OVCAR-8 ovarian
[36] = tested on: HCC-2998 colon
[37] = tested on: SF-539 CNS
[38] = tested on: SW-620 colon
[39] = tested on: ACHN renal
[40] = tested on: MDA-MB-231 breast
[41] = tested on: SNB-19 CNS
[42] = tested on: HOP-62 NSCLC
[43] = tested on: HT29 colon
[44] = tested on: LOX IMVI melanoma
[45] = tested on: OVCAR-4 ovarian
[46] = tested on: NCI-H23 lung
[47] = tested on: MDA-MB-435
[48] = tested on: A549 NSCLC
[49] = tested on: MDA-MB-468 breast
[50] = tested on: MOLT-4 leukemia
[51] = tested on: HL-60(TB) leukemia
[52] = tested on: UO-31 renal
[53] = tested on: HCT-116 colon
[54] = tested on: A498 renal
[55] = tested on: PC-3 prostate
[56] = tested on: UACC-257 melanoma
[57] = tested on: SF-268 CNS
[58] = tested on: RPMI-8226 leukemia

N#Cc1c(-c2ccccc2Cl)cc(-c2ccc3ccccc3c2)[nH]c1=O
34.3 µM: TGI [54]
54.9 µM: TGI [6] | TGI [34]
38.9 µM: TGI [33] | TGI [45]
34.9 µM: TGI [52]
41.8 µM: TGI [11]
inactive: GI50 [1] 31.7 µM | GI50 [2] 36.1 µM | GI50 [3] 31.4 µM | GI50 [4] 11.3 µM | GI50 [5] > 100 µM | GI50 [6] 20.1 µM | GI50 [7] 75.7 µM | GI50 [8] 10.2 µM | GI50 [9] 68.2 µM | GI50 [10] 27.9 µM | GI50 [11] 18.3 µM | GI50 [12] 13.5 µM | GI50 [13] 38.1 µM | GI50 [14] 28.1 µM | GI50 [15] 53.5 µM | GI50 [16] 17.6 µM | GI50 [17] > 100 µM | GI50 [18] 15.6 µM | GI50 [19] 84.8 µM | GI50 [20] 16.3 µM | GI50 [21] > 100 µM | GI50 [22] 88.4 µM | GI50 [23] 25.2 µM | GI50 [24] 22.2 µM | GI50 [25] 17.2 µM | GI50 [26] 14.9 µM | GI50 [27] 15.9 µM | GI50 [28] 16.4 µM | GI50 [29] 24.2 µM | GI50 [30] 27.3 µM | GI50 [31] 34.2 µM | GI50 [32] 15.9 µM | GI50 [33] 16.1 µM | GI50 [34] 18.5 µM | GI50 [35] 17.6 µM | GI50 [36] 53.1 µM | GI50 [37] 20.9 µM | GI50 [38] 42 µM | GI50 [39] 18.8 µM | GI50 [40] 20.3 µM | GI50 [41] 18.5 µM | GI50 [42] 15.3 µM | GI50 [43] > 100 µM | GI50 [44] 44.4 µM | GI50 [45] 17.2 µM | GI50 [46] 28.4 µM | GI50 [47] 27.8 µM | GI50 [48] 27.3 µM | GI50 [49] 23 µM | GI50 [50] > 100 µM | GI50 [51] > 100 µM | GI50 [52] 16 µM | GI50 [53] 27.2 µM | GI50 [54] 15.9 µM | GI50 [55] 41.1 µM | GI50 [56] 22.2 µM | GI50 [57] 28.4 µM | GI50 [58] 76 µM
38.5 µM: TGI [16]
27.7 µM: TGI [8]
42.5 µM: TGI [41]
26.8 µM: TGI [4]
46.6 µM: TGI [18]
89.8 µM: TGI [53]
85.9 µM: TGI [23]
71.9 µM: TGI [56]
32.4 µM: TGI [32]
36.3 µM: TGI [35]
> 100 µM: TGI [1] | TGI [2] | TGI [3] | TGI [5] | TGI [7] | TGI [9] | TGI [10] | TGI [13] | TGI [14] | TGI [15] | TGI [17] | TGI [19] | TGI [21] | TGI [22] | TGI [30] | TGI [31] | TGI [36] | TGI [38] | TGI [43] | TGI [44] | TGI [46] | TGI [47] | TGI [48] | TGI [50] | TGI [51] | TGI [55] | TGI [57] | TGI [58]
33.1 µM: TGI [27]
30.8 µM: TGI [28]
29.8 µM: TGI [42]
45.5 µM: TGI [40]
73.2 µM: TGI [49]
46 µM: TGI [37]
94.3 µM: TGI [29]
56.9 µM: TGI [24]
39.9 µM: TGI [39]
33.8 µM: TGI [25]
28.8 µM: TGI [12]
35.7 µM: TGI [20]
32.5 µM: TGI [26]
